{
  "source": "patent US7160732B2",
  "about": "“Fluorescein-based metal sensors, and methods of making and using the same” (Massachusetts Institute of Technology, priority 2000, dated 2007)",
  "key": {"[1]": {"assay": "Quantum yield of fluorescence, metal free and Zn^2+ bound ligand", "type": "physicochemical", "conditions": "50 mM PIPES, 100 mM KCl", "text": "Quantum yield, Φ, may be obtained by comparison of the integrated area of the corrected emission spectrum of the sample with that of a reference solution. A preferred reference solution is a solution of fluorescein in 0.1 N NaOH, quantum efficiency 0.95. The concentration of the reference is adjusted to match the absorbance, Abs, of the test sample. The quantum yields may be calculated using the following equation: […]\nThe quantum yields of fluorescence were obtained by comparison of the integrated area of the corrected emission spectrum of the sample with that of a solution of fluorescein in 0.1 N NaOH, quantum efficiency 0.95. The concentration of the reference was adjusted to match the absorbance of the test sample. The quantum efficiency of the metal free ligand was measured using dilute sample of Formula 16 dye (˜1×10^−6 M, Abs≦0.1) in 10 mM PIPES, 100 mM KCl and 50 μM EDTA, pH=7.0. The quantum efficiency of the metal bound ligand was measured using a dilute sample of Formula 16 (˜8×10^−7 M, Abs≦0.1) in 10 mM PIPES, 100 mM KCl and 100 μM ZnCl2, pH=7.0. Emission for Formula 16 was integrated from 496 to 600 nm with excitation at 492 nm. The quantum yields were calculated with the following equation.\n(§1) Under pseudo physiological conditions (50 mM PIPES, 100 mM KCl) at pH 7 in the presence of EDTA to scavenge advantageous metal ions, Formula 16 has a quantum yield of 0.25. The quantum yield increases to 0.92 in the presence of 25 μM Zn^2+. The excitation maximum of Formula 16 shifts from 498 nm (ε=36.8×10^3 M^−1cm^−1) to 490 nm (ε=44.9×10^3 M^−1cm^−1) upon Zn^2+ complexation. The slight hypsochromatic shift in the absorption wavelength is indicative of the coordination of the donor group (phenol) to Zn^2+. Since the phenol is incorporated in the π-system of the fluorophore, coordination to a metal would be expected to perturb the electronic structure of the system and produce a shift in the excitation wavelength. […] Under most conditions, cadmium concentrations are much lower than zinc concentrations in biological samples."}, "[2]": {"assay": "Excitation maximum and extinction coefficient, free and upon Zn^2+ complexation", "type": "physicochemical", "conditions": "pH 7", "procedure": "(§2) Absorption spectra were recorded on a Hewlett Packard 8453A diode array spectrophotometer under the control of a Pentium II-based PC running the Windows NT ChemStation software package, or a Cary 1E scanning spectrophotometer under the control of a Pentium PC running the manufacturer supplied software package. Spectra were routinely acquired at 25° C., maintained by a circulating water bath in 1 cm path length quartz cuvettes with a volume of 1.0 or 3.5 mL.\nas §1"}, "[3]": {"assay": "Fluorescence Zn^2+ binding titration (Kd) in Ca^2+/EDTA/Zn^2+ buffers", "conditions": "1 mM EDTA, 2 mM Ca^2+, 0–1 mM total Zn^2+", "procedure": "The first Kd associated with Zn^2+ binding was measured by a fluorescence titration as described previously. Spectra of the fluorescence of the ligand of Formula 16 were acquired by exciting at 490 nm and collecting and integrating from 500–575 nm. The measurements were performed in triplicate to ensure accuracy of the Kd value.\n(§3) The fluorescent increase and binding affinity for Zn^2+ were characterized using a dual-metal single-ligand buffer system comprised of 1 mM EDTA, 2 mM Ca^2+ (or Mg^2+ up to 5 mM) and 0–1 mM total Zn^2+. […] The quantum yield of Formula 16 increases by ˜3.7-fold, and the integrated emission increases 6.0-fold.\n(§4) The Zn^2+ affinity of Formula 16 was determined by performing these measurements in triplicate using different Ca^2+/EDTA/Zn^2+ buffers (FIG. 3, left panel). The fluorescence response of the ligand of Formula 16 to the solutions was measured by excitation of the solution at 490 nm with 0.25 nm slit width and detecting the emission over 500 to 575 nm. The buffer solutions contained 100 mM KCl, 50 mM PIPES, pH=7.2 mM Ca2+, 1 mM EDTA and varying free Zn2+concentrations of 0, 0.172, 0.424, 0.787, 1.32, 2.11, 3.34, 5.60, 10.2, and 24.1 nM. […] The fluorescence response fits to a Hill coefficient of 1, consistent with the formation of a 1:1 ligand:Zn^2+ complex responsible for the enhancement."}, "[4]": {"assay": "pH dependent fluorescence (apparent fluorescence pKa)", "type": "physicochemical", "procedure": "The apparent fluorescence pKa was measured by plotting the integrated area of the emission spectrum against the pH recorded from pH=12.5–2.5. A 1 μM solution of the ligand of Formula 16 (10 mLs) containing ˜1 mM KOH and 100 mM KCl was adjusted to pH 12.5 and the UV-vis and fluorescence spectra were recorded. The pH was lowered in steps of ΔpH=0.5 with the addition of appropriate amounts of 6 N, 2 N, 0.5 N, 1 N, 0.1 N and 0.01 N HCl recording the absorption and emission spectra at each pH interval. The volume of the solution was controlled so the overall change in volume was <2%. Emission for the fluorescein-based ligand of […] was integrated from 500 to 700 nm. The resulting integrated emission areas were normalized, plotted against pH, and fit with the following nonlinear equation to calculate the pKa values. In the equation, ΔF1max and ΔF2max are the maximum fluorescence changes associated with the corresponding pKa values at the pH at which the maximum occurs.\nThe fluorescence of the Formula 16 ligand is enhanced by protons. […] At high pH, the magnitude of Zn^2+-induced fluorescent enhancement is more dramatic, increasing over 200-fold at pH 12."}, "[5]": {"assay": "Absorption titration, second Zn^2+ binding event (Kd2)", "conditions": "physiologically relevant pH", "procedure": "as §2\nThe binding of Zn^2+ by a fluorescein-based ligand of Formula 16 is accompanied by changes in the absortion spectra. […] Addition of greater than one equivalent of Zn^2+ produces small changes in the absorption spectra of the ligand. The change fits to a Kd2 of 10±2 μM (486 nm), and decreases to 7.5±2.5 μM (508 nm)."}, "[6]": {"assay": "Fluorescence response to other metal ions", "procedure": "(§5) Fluorescence spectra were recorded on a Hitachi F-3010 spectrofluorimeter under the control of a Pentium-based PC running the SpectraCalc software package. Excitation was provided by a 150 W Xe lamp (Ushio Inc.) operating at a current of 5 A. All spectra were normalized for excitation intensity via a rhodamine quantum counter, and emission spectra were normalized by the manufacturer-supplied correction curves. Spectra were routinely acquired at 25° C., maintained by a circulating water bath in 1 cm×1 cm quartz cuvettes using 3 nm slit widths and a 240 nm/min scan speed. Fluorescence emission measurements were also acquired in a 1 cm×1 cm quartz cell using a Spex Fluorolog-2 instrument with 1 nm bandwidth slits. All spectra were corrected for emission intensity using the manufacturer-supplied photomultiplier curves. Spectra were routinely acquired at 25° C., maintained by a circulating water bath.\nas §1"}, "[7]": {"tested_on": "intracellular Zn^2+ in COS-7 cells", "assay": "Detection of intracellular Zn^2+ by fluorescence microscopy", "type": "cell-based", "procedure": "(§6) The ability of a fluorescein-based ligand of Formula 16 to act as a sensor for intracellular Zn^2+ was tested in COS-7 (FIG. 5) and HeLa cells (FIG. 6), using a Formula 16. Both cell types were treated with 5 μM of the fluorescein-based ligand of Formula 16 for one hour at 37° C. […] Similar observations have been made using quinoline-based Zn^2+ probes in undifferentiated mammalian cells.\n(§7) Intracellular Zn^2+ concentrations were increased by incubating the cells with Zn^2+ in the presence of pyrithione, a Zn^2+ ionophore. […] Available Zn^2+ was decreased by treatment with the membrane permeable Zn^2+-chelator, TPEN."}, "[8]": {"tested_on": "intracellular Zn^2+ in HeLa cells", "assay": "Detection of intracellular Zn^2+ by fluorescence microscopy", "type": "cell-based", "procedure": "as §6, §7"}, "[9]": {"assay": "Lactone formation under aqueous conditions", "type": "physicochemical", "conditions": "even at high [Zn^2+] (200 μM)", "procedure": "Binding of the first Zn^2+ more efficiently interrupts the PET process and increases the band gap between the S0 and S1 energy levels. The Kd1 is lower than that of DPA because of the additional coordination by the phenolic oxygen. […] (200 μM). These conclusions are preliminary and are not intended to limit the scope of the invention in any way."}, "[10]": {"assay": "Fluorescence response to Zn^2+", "procedure": "as §5, with “bath. […]” for “bath.”\nThe fluorescence of the Formula 16 ligand is enhanced by protons. […]\nUnder pseudo physiological conditions (50 mM PIPES, 100 mM KCl) at pH 7 in the presence of EDTA to scavenge advantageous metal ions, Formula 57 has a quantum yield of 0.06. […] The fluorescence of Formula 57 also appears to be pH dependent. These fluorescence results are preliminary and are not intended to limit the scope of the invention in any way."}, "[11]": {"assay": "Zn^2+ affinity of reference chelator complexes", "type": "binding", "conditions": "pH 7", "procedure": "as §3\nas §4, with “nM. The measurements indicate that Formula 16 has a Kd of 0.5±0.1 nM (mean ±esd), obtained by a hyperbolic fit to the plot of the area under each fluorescence peak versus the Zn2+ concentration at which it was measured (FIG. 3, right panel).” for “nM.”"}, "[12]": {"conditions": "pH 7, in the presence of EDTA (metal free)"}, "[13]": {"conditions": "fit of integrated emission versus pH, 100 mM KCl"}},
  "data": [
    {"smiles": "O=C1OC2(c3ccccc31)c1ccc(O)c(CN(Cc3ccccn3)Cc3ccccn3)c1Oc1c2ccc(O)c1CN(Cc1ccccn1)Cc1ccccn1", "note": "[Formula 16]", "values": [
      {"measurement": "quantum yield", "setting": "[1]; pH 7, in the presence of 25 μM Zn^2+", "result": 0.92},
      {"measurement": "quantum yield", "setting": "[1]; [12]", "result": 0.25},
      {"measurement": "excitation maximum", "setting": "[2]; before Zn^2+ complexation", "result": 498, "unit": "nm"},
      {"measurement": "ε at excitation maximum", "setting": "[2]; before Zn^2+ complexation", "result": 36800, "unit": "M⁻¹ cm⁻¹"},
      {"measurement": "excitation maximum", "setting": "[2]; upon Zn^2+ complexation", "result": 490, "unit": "nm"},
      {"measurement": "ε at excitation maximum", "setting": "[2]; upon Zn^2+ complexation", "result": 44900, "unit": "M⁻¹ cm⁻¹"},
      {"measurement": "increase of integrated emission on Zn^2+ binding", "setting": "[3]", "result": 6.0, "unit": "fold"},
      {"measurement": "increase of quantum yield on Zn^2+ binding", "setting": "[3]", "result": "~3.7", "unit": "fold"},
      {"measurement": "pH of maximum fluorescence", "setting": "[4]", "result": "~5.5"},
      {"measurement": "apparent pKa,1", "setting": "[4]; [13]", "result": 3.9},
      {"measurement": "apparent pKa,2", "setting": "[4]; [13]", "result": 9.4},
      {"measurement": "fluorescence at high pH", "setting": "[4]; pH>12", "result": "almost completely quenched"},
      {"measurement": "fluorescence change at the second binding event", "setting": "[5]", "result": "not associated with a measurable change in fluorescence"},
      {"measurement": "change in fluorescence intensity", "setting": "[6]; Ca^2+", "result": "no measurable change in intensity"},
      {"measurement": "effect on fluorescence", "setting": "[6]; Cd^2+", "result": "increase in fluorescence"},
      {"measurement": "effect on fluorescence", "setting": "[6]; Co^2+", "result": "quench fluorescence"},
      {"measurement": "effect on fluorescence", "setting": "[6]; Cu^2+", "result": "quench fluorescence"},
      {"measurement": "effect on fluorescence", "setting": "[6]; Fe^2+", "result": "quench fluorescence"},
      {"measurement": "change in fluorescence intensity", "setting": "[6]; Mg^2+", "result": "no measurable change in intensity"},
      {"measurement": "effect on fluorescence", "setting": "[6]; Mn^2+", "result": "quench fluorescence"},
      {"measurement": "effect on fluorescence", "setting": "[6]; Ni^2+", "result": "quench fluorescence"},
      {"measurement": "fluorescent staining of cells", "setting": "[7]; 5 μM ligand, one hour at 37° C., particularly perinuclear region (Golgi)", "result": "bright fluorescent staining"},
      {"measurement": "fluorescent signal after Zn^2+ chelation", "setting": "[7]; TPEN", "result": "decreased the fluorescent signal"},
      {"measurement": "fluorescent signal after raising intracellular Zn^2+", "setting": "[7]; Zn^2+ with pyrithione", "result": "increase in the fluorescent signal"},
      {"measurement": "fluorescent staining of cells", "setting": "[8]; 5 μM ligand, one hour at 37° C.", "result": "bright fluorescent staining"},
      {"measurement": "fluorescent signal after Zn^2+ chelation", "setting": "[8]; TPEN", "result": "decreased the fluorescent signal"},
      {"measurement": "fluorescent signal after raising intracellular Zn^2+", "setting": "[8]; Zn^2+ with pyrithione", "result": "increase in the fluorescent signal"},
      {"measurement": "lactone formation", "setting": "[9]", "result": "no lactone formation"},
      {"measurement": "selectivity of the fluorescence response", "setting": "[10]; compared with other metal ions", "result": "Zn^2+ selective"},
      {"measurement": "Zn^2+-induced fluorescent enhancement", "setting": "[10]; pH 12", "result": "over 200 fold"}
    ]},
    {"smiles": "O=C1OC2(c3ccccc31)c1cc(Cl)c(O)c(CN(Cc3ccccn3)Cc3ccccn3)c1Oc1c2cc(Cl)c(O)c1CN(Cc1ccccn1)Cc1ccccn1", "note": "[Formula 31]", "values": [
      {"measurement": "quantum yield", "setting": "[1]; [12]", "result": 0.39},
      {"measurement": "quantum yield", "setting": "[1]; pH 7, in the presence of Zn^2+ (concentration not given)", "result": 0.87},
      {"measurement": "excitation maximum", "setting": "[2]; upon Zn^2+ complexation", "result": 507, "unit": "nm"},
      {"measurement": "ε at excitation maximum", "setting": "[2]; upon Zn^2+ complexation", "result": 84000, "unit": "M⁻¹ cm⁻¹"}
    ]},
    {"smiles": "[Zn+2].c1ccc(CNCc2ccccn2)nc1", "note": "[[Zn(DPA)]^2+]", "values": [
      {"measurement": "weaker binding than the ligand of Formula 16", "setting": "[11]", "result": "approximately 2 orders of magnitude"}
    ]}
  ]
}
